The target of one assay is benzodiazepine receptors. Description: Affinity for benzodiazepine receptors ([3H] flunitrazepam radioreceptor binding). Conditions: inhibition of specific binding of 0.6 nM [^3 H] flunitrazepam, rat forebrain membrane preparations; read-out: Receptor Binding (IC50 nM). The method, then:
A. Affinity for benzodiazepine receptors
The affinity of the compounds for benzodiazepine receptors was assessed using the radioligand [^3 H] flunitrazepam and modifications of the original radioreceptor binding method of Squares and Braestrup (Nature, Vol. 266 (1977) p. 732). The values given in Table VI are nanomolar concentrations of test compound which inhibited the specific binding of 0.6 nM[^3 H] flunitrazepam to rat forebrain membrain preparations by 50% (IC50 nM).

Assay [1] is described as follows: Anxiolytic activity, Geller conflict method (Geller and Seifter). Type of assay: in vivo. The conditions noted are these: po; modified Geller and Seifter conflict method; read-out: Geller Conflict (MED mg/kg po), minimum effective dose at which there was an observed increase in shocks above control. The method, then:
Screening for anxiolytic activity was carried out by modifications of the conflict method of Geller and Seifter (Psychopharmacologia, (1960), Volume I, p. 482). The values given in Table VI are the minimum effective doses at which there was an observed increase in shocks above control (MED me/kg po).

A word on the IC50: it is the concentration that gives 50% inhibition.

Regarding `COc1nc2nc(C(=O)c3ccccc3)cn2c(C)c1C(C)C` [Example 11, (7-Methoxy-5-methyl-6-(1-methylethyl)imidazo[1,2-a]pyrimidin-2-yl)phenylmethanone], the IC50 on benzodiazepine receptors came to 37 nM. The minimal effective dose in assay [1] was 2 mg/kg.
Take `CCc1cc(OC)nc2nc(C(=O)c3ccccc3)cn12` [Example 15, (5-Ethyl-7-methoxyimidazo[1,2-a]pyrimidin-2-yl)phenylmethanone]: on benzodiazepine receptors, the IC50 is 295 nM. In assay [1], the minimal effective dose came to 2 mg/kg.
The corresponding values for `CCOc1nc2nc(C(=O)c3ccccc3)cn2c(C)c1CC` [Example 25, [7-Ethoxy-6-ethyl-5-methylimidazo[1,2-a]pyrimidin-2-yl]phenylmethanone] are 1900 nM and 50 mg/kg.
In the case of `CCc1c(OC)nc2nc(C(=O)c3cccc(OC)c3)cn2c1C` [Example 58, (6-ethyl 7-methoxy 5-methylimidazo/1,2-a/pyrimidin-2-yl)(3-methoxyphenyl)methanone], the half-maximal inhibitory concentration (IC50) on benzodiazepine receptors was 500 nM. In addition, in assay [1], the minimal effective dose amounted to 50 mg/kg.
Turning to `CCCc1c(SC)nc2nc(C(=O)c3ccccc3)cn2c1CC` [Example 53, [5-Ethyl-7-(methylthio)-6-n-propylimidazo[1,2-a]pyrimidin-2-yl]phenylmethanone], the IC50 at benzodiazepine receptors was 47 nM.
Consider `CCCc1c(OC)nc2nc(C(=O)c3ccccc3)cn2c1C` [Example 32, [7-Methoxy-5-methyl-6-n-propylimidazo[1,2-a]pyrimidin-2-yl]phenylmethanone], for which the IC50 on benzodiazepine receptors amounted to 85 nM. Moreover, the minimal effective dose in assay [1] stood at 5 mg/kg.
Turning to `CCc1c(OC)nc2nc(C(=O)c3ccccc3)cn2c1CC` [Example 31, [5,6-Diethyl-7-methoxyimidazo[1,2-a]pyrimidin-2-yl]phenylmethanone], the IC50 on benzodiazepine receptors was determined as 107 nM. In addition, in assay [1], the minimal effective dose was 2 mg/kg.
The corresponding values for `COc1nc2nc(C(=O)c3ccccc3)cn2c2c1CCC2` [Example 4, (5-Methoxycyclopenta[e]imidazol[1,2-a]pyrimidin-2-yl)-phenylmethanone] are 200 nM and 20 mg/kg.
`CSc1nc2nc(C(=O)c3ccccc3)cn2c2c1CCC2` [Example 6, [5-(Methylthio)cyclopenta[e]imidazo[1,2-a]pyrimidin-2-yl]phenylmethanone]: the IC50 at benzodiazepine receptors was found to be 35 nM. The minimal effective dose in assay [1] came to 2 mg/kg.
The corresponding values for `COc1nc2nc(C(=O)c3ccccc3)cn2c(C)c1CC1CC1` [Example 23, [6-Cyclopropylmethyl-7-methoxy-5-methylimidazo[1,2-a]pyrimidin-2-yl]phenylmethanone] are 30 nM and 10 mg/kg.
The corresponding values for `CCCCc1c(OC)nc2nc(C(=O)c3ccccc3)cn2c1C` [Example 30, [6-n-Butyl-7-methoxy-5-methylimidazo[1,2-]pyrimidin-2-yl]phenylmethanone] are 42 nM and 2 mg/kg.
The corresponding values for `CCCc1c(CC)c(OC)nc2nc(C(=O)c3ccccc3)cn12` [Example 27, [6-Ethyl-7-methoxy-5-n-propylimidazo[1,2-a]pyrimidin-2-yl]phenylmethanone] are 470 nM and 50 mg/kg.
With `COc1nc2nc(C(=O)c3ccccc3)cn2c2c1CCC(C)C2` (centres unmarked) [Example 17, (5-Methoxy-8-methyl-6,7,8,9-tetrahydroimidazo[1,2-a]quinazolin-2-yl]phenylmethanone], the IC50 at benzodiazepine receptors stood at 135 nM. Besides, the minimal effective dose in assay [1] is 10 mg/kg.
The corresponding values for `COc1nc2nc(C(=O)c3ccccc3)cn2c(C)c1C` [Example 7, (7-Methoxy-5,6-dimethylimidazo[1,2-a]pyrimidin-2-yl)phenylmethanone] are 235 nM and 50 mg/kg.
The corresponding values for `CCc1c(OC)nc2nc(C(=O)c3ccc(C)cc3)cn2c1C` [Example 56, (6-ethyl 7-methoxy 5-methylimidazo/1,2-a/pyrimidin-2-yl)(4-methylphenyl)methanone] are 68 nM and 50 mg/kg.
The corresponding values for `COc1nc2nc(C(=O)c3ccccc3)cn2c(C)c1CC(C)C` [Example 48, [6-iso-Butyl-7-methoxy-5-methylimidazo[1,2-a]pyrimidin-2-yl]phenylmethanone] are 400 nM and 20 mg/kg.
For `CCCc1c(OC)nc2nc(C(=O)c3ccccc3)cn2c1CC` [Example 35, [5-Ethyl-7-methoxy-6-n-propylimidazo[1,2-a]pyrimidin-2-yl]phenylmethanone], the IC50 at benzodiazepine receptors came to 34 nM. Besides, in assay [1], the minimal effective dose was determined as 10 mg/kg.
The corresponding values for `CCCCc1cn2cc(C(=O)c3ccccc3)nc2nc1OC` [Example 41, [6-n-Butyl-7-methoxyimidazo[1,2-a]pyrimidin-2-yl]phenylmethanone] are 300 nM and 50 mg/kg.
The corresponding values for `COc1nc2nc(C(=O)c3ccccc3)cn2cc1C` [Example 42, [7-Methoxy-6-methylimidazo[1,2-a]pyrimidin-2-yl]phenylmethanone] are 5900 nM and 50 mg/kg.
The corresponding values for `CCc1c(OC)nc2nc(C(=O)c3ccccc3Cl)cn2c1C` [Example 57, (6-ethyl 7-methoxy 5-methylimidazo/1,2-a/pyrimidin-2-yl)(2-chlorophenyl)methanone] are 100 nM and 50 mg/kg.
For the compound `CCCCc1c(CC)c(OC)nc2nc(C(=O)c3ccccc3)cn12` [Example 45, [5-n-Butyl-6-ethyl-7-methoxyimidazo[1,2-a]pyrimidin-2-yl]phenylmethanone], the IC50 on benzodiazepine receptors was found to be 500 nM. Also, the minimal effective dose in assay [1] amounted to 50 mg/kg.
The corresponding values for `CCCCc1c(OC)nc2nc(C(=O)c3ccccc3)cn2c1CC` [Example 36, [6-n-Butyl-5-ethyl-7-methoxy-imidazo[1,2-a]pyrimidin-2-yl]phenylmethanone] are 34 nM and 10 mg/kg.
Take `CCCc1cn2cc(C(=O)c3ccccc3)nc2nc1OC` [Example 40, [7-Methoxy-6-n-propylimidazo[1,2-a]pyrimidin-2-yl]phenylmethanone]: the IC50 on benzodiazepine receptors stood at 1900 nM. Further, in assay [1], the minimal effective dose was found to be 50 mg/kg.
In the case of `CCc1c(OC)nc2nc(C(=O)c3ccc(OC)cc3)cn2c1C` [Example 54, (6-Ethyl-7-methoxy-5-methylimidazo[1,2-a]pyrimidin-2-yl)(4-methoxyphenyl)methanone], on benzodiazepine receptors, the IC50 amounted to 59 nM. The minimal effective dose in assay [1] is 10 mg/kg.
`CCc1c(OC)nc2nc(C(=O)c3ccccn3)cn2c1C` [Example 61, (6-ethyl 7-methoxy 5-methylimidazo/1,2-a/pyrimidin-2-yl)(2-pyridinyl)methanone]: in assay [1], the minimal effective dose amounted to 50 mg/kg.
Regarding `CCc1c(OC)nc2nc(C(=O)c3ccc(Cl)cc3)cn2c1C` [Example 55, (6-ethyl 7-methoxy 5-methylimidazo/1,2-a/pyrimidin-2-yl)(4-chlorophenyl)methanone], the IC50 on benzodiazepine receptors was found to be 85 nM. In addition, the minimal effective dose in assay [1] amounted to 50 mg/kg.
The corresponding values for `CCCc1c(C)c(OC)nc2nc(C(=O)c3ccccc3)cn12` [Example 26, [7-Methoxy-6-methyl-5-propylimidazo[1,2-a]pyrimidin-2-yl]phenylmethanone] are 740 nM and 20 mg/kg.
As for `CSc1nc2nc(C(=O)c3ccccc3)cn2c2c1CCCC2` [Example 12, [5-(Methylthio)-6,7,8,9-tetrahydroimidazo[1,2-a]quinazolin-2-yl]phenylmethanone], on benzodiazepine receptors, the half-inhibitory concentration (IC50) is 8.5 nM. Further, the minimal effective dose in assay [1] worked out at 10 mg/kg.
`CCc1c(OC)nc2nc(C(=O)c3ccc(SC)cc3)cn2c1C` [Example 59, (6-ethyl 7-methoxy 5-methylimidazo/1,2-a/pyrimidin-2-yl)(4-methylthiophenyl)methanone]: the IC50 on benzodiazepine receptors was 300 nM. Moreover, in assay [1], the minimal effective dose turned out to be 50 mg/kg.
Take `CCc1c(OC)nc2nc(C(=O)c3ccc(F)cc3)cn2c1C` [Example 62, (6-ethyl 7-methoxy 5-methylimidazo/1,2-a/pyrimidin-2-yl)(4-fluorophenyl)methanone]: in assay [1], the minimal effective dose turned out to be 10 mg/kg.
Consider `CCCc1c(OC)nc2nc(C(=O)c3ccccc3)cn2c1CCC` [Example 33, [7-Methoxy-5,6-di-n-propylimidazo[1,2-a]pyrimidin-2-yl]phenylmethanone], for which the IC50 at benzodiazepine receptors is 1250 nM. Besides, the minimal effective dose in assay [1] was 50 mg/kg.
The corresponding values for `CCc1c(C)c(OC)nc2nc(C(=O)c3ccccc3)cn12` [Example 29, [5-Ethyl-7-methoxy-6-methylimidazo[1,2-a]pyrimidin-2-yl]phenylmethanone] are 1000 nM and 20 mg/kg.
Turning to `CCc1c(OC)nc2nc(C(C)=O)cn2c1C` [Example 64, 1-(6-ethyl 7-methoxy 5-methylimidazo/1,2-a/pyrimidin-2-yl)ethanone], the minimal effective dose in assay [1] was determined as 50 mg/kg.
For `CCc1c(SC)nc2nc(C(=O)c3ccccc3)cn2c1CC` [Example 52, [5,6-Diethyl-7-(methylthio)imidazo[1,2-a]pyrimidin-2-yl]phenylmethanone], at benzodiazepine receptors, the 50% inhibitory concentration (IC50) worked out at 12 nM.
`CCc1c(OC)nc2nc(C(=O)c3cccc(C(F)(F)F)c3)cn2c1C` [Example 63, (6-ethyl 7-methoxy 5-methylimidazo/1,2-a/pyrimidin-2-yl)/(3-trifluoromethyl)phenyl/methanone]: the minimal effective dose in assay [1] came out at 50 mg/kg.
The same measure, in the same setting: to `CCc1c(OC)nc2nc(C(=O)c3cccs3)cn2c1C` [Example 60, 6-ethyl 7-methoxy 5-methylimidazo/1,2-a/pyrimidin-2-yl(2-thienyl)methanone] belongs 50 mg/kg.

Values taken from US4588720A, “Imidazo[1,2-a]pyrimidines” (Roussel Uclaf, priority 1982, dated 1986).
